According to patent US8133888B2, “Hydrazide containing taxane conjugates” (Sun Pharma Advanced Research Company Ltd., priority 2008, dated 2012):
Blank lines part the entries; values can stand above or below the compound they belong to.

Key:
[1] = Conversion of compound of formula I to the active taxane compound in human plasma (LC-MS/MS); assay type: in vitro ADME; details: 37° C.; for Peak Area of test compound / % Unconverted Compound I.04: human plasma; for Peak Area of docetaxel formed: docetaxel released from compound I.04 in human plasma
Procedure: The conversion of the test compound I.04 of the present invention to the active/parent taxane compound was determined in the human plasma sample. The test compound of 2000 ng per nil concentration was added to human plasma at ambient temperature and was kept in an incubator maintained at 37° C. Aliquots of this plasma sample were taken at definite time intervals and subjected to LC-MS/MS analysis. The samples were analyzed for amount of unconverted test compound and the amount of docetaxel formed in the test solution using LC-MS/MS operating in selected reaction monitoring (SRM) mode, as per follows: • Column: Hypurity Aquastar C-18, 50×2.1 mm, 3 micron • Mobile Phase: 10 mmol ammonium acetate-acetonitrile, 40:60 • Flow Rate: 250 μl/min • Oven Temperature: 45° C. • Retention time of compound I.04: 13.9 min • Retention time of docetaxel: 0.79 min
The parent ions>product ions monitored were the following: […]

[2] = Solubility of the taxane conjugates in water with added acid (visual clarity); assay type: physicochemical; details: 2 mg dispersed in 0.5 ml water, sonicated, 20 μl of 2.5M HCl added, sonicated about 2 min
Procedure: About 2 mg of the taxane conjugate of formula I was dispersed in 0.5 ml water (sterile) and sonicated for about 2 min. Small aliquots of a pharmaceutically accepted acid was added, sonicated for 2-3 min after each addition and observed for visual clarity.
For example, 2 mg of compound I.03 was dispersed in 0.5 ml water and sonicated for about 2 min.

[3] = cited from earlier work

SMILES: CC(=O)O[C@@]12CO[C@@H]1C[C@H](O)[C@@]1(C)C(=O)[C@H](O)C3=C(C)[C@@H](OC(=O)[C@H](OC(=O)CCC(=O)NN4CCCCC4)[C@@H](NC(=O)OC(C)(C)C)c4ccccc4)C[C@@](O)([C@@H](OC(=O)c4ccccc4)[C@H]21)C3(C)C [Compound I.04, 10-Deacetyl-N-debenzoyl-N-(tert-butyloxycarbonyl)-2′-[(N-piperidin-1-yl)-succinamidoyl]taxol]
- Peak Area of test compound ([1]; time 0 hrs): 24696932.5 counts
- % Unconverted Compound I.04 ([1]; time 0.0 hrs): 100%
- % Unconverted Compound I.04 ([1]; time 0.5 hrs): 59.1%
- Peak Area of test compound ([1]; time 0.5 hrs): 19303514.4 counts
- Peak Area of test compound ([1]; time 1 hrs): 16791382.3 counts
- % Unconverted Compound I.04 ([1]; time 1.0 hrs): 40.3%
- Peak Area of test compound ([1]; time 2 hrs): 11789443.5 counts
- % Unconverted Compound I.04 ([1]; time 2.0 hrs): 4.7%
- Peak Area of test compound ([1]; time 3 hrs): 6259891.0 counts
- Peak Area of test compound ([1]; time 4 hrs): 3007853.1 counts
- % Unconverted Compound I.04 ([1]; time 4.0 hrs): 0.1%
- Peak Area of test compound ([1]; time 6 hrs): 904115.8 counts

SMILES: CC(=O)O[C@H]1C(=O)[C@@]2(C)[C@H]([C@H](OC(=O)c3ccccc3)[C@]3(O)C[C@H](OC(=O)[C@H](O)[C@@H](NC(=O)c4ccccc4)c4ccccc4)C(C)=C1C3(C)C)[C@]1(OC(C)=O)CO[C@@H]1C[C@@H]2O [paclitaxel]
- Solubility, visual clarity [2]: completely insoluble
- Solubility in water (in words) [3]: poorly soluble in water

- Solubility, visual clarity [2]: clear solution
SMILES: CC(=O)O[C@@]12CO[C@@H]1C[C@H](OC(=O)CCC(=O)NN1CCCCC1)[C@@]1(C)C(=O)[C@H](O)C3=C(C)[C@@H](OC(=O)[C@H](OC(=O)CCC(=O)NN4CCCCC4)[C@@H](NC(=O)OC(C)(C)C)c4ccccc4)C[C@@](O)([C@@H](OC(=O)c4ccccc4)[C@H]21)C3(C)C [Compound I.03, 10-Deacetyl-N-debenzoyl-N-(tert-butyloxycarbonyl)-2′,7-bis[(N-piperidin-1-yl)succinamidoyl]taxol]

SMILES: CC(=O)O[C@@]12CO[C@@H]1C[C@H](O)[C@@]1(C)C(=O)[C@H](O)C3=C(C)[C@@H](OC(=O)[C@H](O)[C@@H](NC(=O)OC(C)(C)C)c4ccccc4)C[C@@](O)([C@@H](OC(=O)c4ccccc4)[C@H]21)C3(C)C [Docetaxel, docetaxel, reference compound]
- Solubility, visual clarity [2]: completely insoluble
- Solubility in water [3]: < 50 µg/mL
- Peak Area of docetaxel formed ([1]; time 0 hrs): 10447.0 counts
- Peak Area of docetaxel formed ([1]; time 0.5 hrs): 70713.8 counts
- Peak Area of docetaxel formed ([1]; time 1 hrs): 125083.0 counts
- Peak Area of docetaxel formed ([1]; time 2 hrs): 243846.6 counts
- Peak Area of docetaxel formed ([1]; time 3 hrs): 331134.0 counts
- Peak Area of docetaxel formed ([1]; time 4 hrs): 464924.3 counts
- Peak Area of docetaxel formed ([1]; time 6 hrs): 546298.2 counts
